From patent US20040110775A1, “Cyclin dependent kinase inhibiting purine derivatives” (priority 2001, published 2004)
Like-named read-outs stand apart in the source and are kept apart here.

How the values were obtained:
p34 cdc2(CDK1)/cyclinB = assay: CDK assay: histone H1 phosphorylation with [32P]ATP by cdc2/cyclinB kinase; assay type: biochemical, starfish (Marthasterias glacialis); settings: read-out: IC50 ± SD CDK1
Experimental: Assays are available for testing the inhibitory activity of the compounds of interest against a range of CDK/cyclin complexes, including CDK1/cyclin A, CDK1/cyclin B, CDK1/cyclin F, CDK2/cyclin A, CDK2/cyclin E, CDK4/cyclin D, CDK5/35 and CDK6/cyclin D3. […]
(§1) By way of example, however, a typical protocol is summarised below.
Buffer C (containing 6 mM β-glycerophosphate, 30 mM nitrophenyl phosphate, 25 mM MOPS pH 7.0, 5 mM EGTA, 15 mM MgCl2, […] and 0.1 mM sodium orthovanadate) is made up as follows:
Affinity purified p34 cdc2(CDK1)/cyclinB from M-phase starfish (Marthasterias glacialis) in 20% glycerol is stored at −80° C. in chest freezer
Histone H1 (type III-S (Sigma) 4° C.) 5 mg/ml in buffer C.
[^32P]ATP 75 mM: Make up using (multiples of) the following proportions:
DMSO cannot exceed 1% in the assay mixture. Inhibitors are added at 1/10 final assay volume and 10× final strength. DMSO stocks must therefore be diluted to 10× final desired concentration in ≦10% DMSO, ≧90% buffer C.
All reagents (except DMSO stocks) should be kept on ice until assay initiated.
Start reaction in each tube at 30 second intervals b)y adding
5 ml [^32P]ATP vortexing and placing in rack in waterbath at 30° C.
Terminate reaction after 10 min at 30 second intervals in tubes in same order by removing […] reaction mix and spotting onto appropriately labelled filter, allowing to dry for 20-30 seconds and transferring to stirring 1% phosphoric acid.
Blank incubation is performed as above but without histone (add […] buffer C instead) Washing blank is […] ATP added directly to filter.
Wash filters 5-6 times 5 min each
Dry the filters on paper towel
Count in mini scintillation vials with 5 ml scintillant.
NB. The assay can be simplified by making up stock reaction mix as follows:
(1 part cdc2/cyclinB, 16 parts buffer C, 5 parts histone H1)×Number of assay tubes+1 and add […] to each assay tube containing […] buffer C±inhibitor.
It is still necessary, however, to make up assay blank (i.e. without histone) separately.

[1] = disclosed in WO 99/02162; cited from earlier work
[2] = test system: CDK1(cdc2)/cyclin B complexes; settings: disclosed in WO 99/02162; cited from earlier work
CDK2 = CDK2 (Homo sapiens, UniProt P24941); assay: Inhibition of CDK2 (CDK inhibition assay); assay type: biochemical; settings: values in nM; read-out: IC50 ± SD CDK2
Text: Assays are available for testing the inhibitory activity of the compounds of interest against a range of CDK/cyclin complexes, including CDK1/cyclin A, CDK1/cyclin B, CDK1/cyclin F, CDK2/cyclin A, CDK2/cyclin E, CDK4/cyclin D, CDK5/35 and CDK6/cyclin D3.
Apart from reference compounds, the compounds listed are accompanied by an NU reference or identification code number.
as §1

CDK4 = CDK4 (Homo sapiens, UniProt P11802); settings: cited from earlier work
CDK6 = CDK6 (Homo sapiens, UniProt Q00534); settings: cited from earlier work
[3] = test system: many common kinases other than CDK's; settings: cited from earlier work

Chain of CDK4 (P11802 whole entry, species assumed): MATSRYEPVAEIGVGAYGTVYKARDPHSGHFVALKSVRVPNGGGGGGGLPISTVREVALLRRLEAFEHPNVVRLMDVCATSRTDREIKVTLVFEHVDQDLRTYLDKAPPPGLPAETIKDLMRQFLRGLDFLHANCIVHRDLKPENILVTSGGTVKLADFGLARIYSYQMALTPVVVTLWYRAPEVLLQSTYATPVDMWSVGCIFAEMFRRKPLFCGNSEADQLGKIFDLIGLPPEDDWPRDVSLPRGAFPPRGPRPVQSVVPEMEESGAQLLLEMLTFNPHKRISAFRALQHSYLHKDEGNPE
Chain of CDK4 (P24385 whole entry partner, species assumed): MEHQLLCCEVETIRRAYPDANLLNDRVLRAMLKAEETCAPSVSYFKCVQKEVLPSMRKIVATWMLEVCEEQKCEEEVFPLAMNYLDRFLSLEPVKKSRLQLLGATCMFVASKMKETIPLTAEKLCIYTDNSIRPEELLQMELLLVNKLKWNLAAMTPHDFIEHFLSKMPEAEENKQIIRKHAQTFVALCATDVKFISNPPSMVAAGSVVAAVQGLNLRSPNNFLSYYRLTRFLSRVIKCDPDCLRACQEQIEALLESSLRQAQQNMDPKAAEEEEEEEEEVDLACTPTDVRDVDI
Chain of CDK6 (Q00534 whole entry, species assumed): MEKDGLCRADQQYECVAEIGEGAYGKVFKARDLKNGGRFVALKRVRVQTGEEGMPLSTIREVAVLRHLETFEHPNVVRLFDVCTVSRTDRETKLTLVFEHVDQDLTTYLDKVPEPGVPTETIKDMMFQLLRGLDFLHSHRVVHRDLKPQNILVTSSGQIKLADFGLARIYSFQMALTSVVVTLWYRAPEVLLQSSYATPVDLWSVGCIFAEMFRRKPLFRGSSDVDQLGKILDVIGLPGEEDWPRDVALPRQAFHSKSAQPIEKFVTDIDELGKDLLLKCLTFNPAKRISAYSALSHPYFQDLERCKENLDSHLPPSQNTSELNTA
Chain of CDK6 (P30281 whole entry partner, species assumed): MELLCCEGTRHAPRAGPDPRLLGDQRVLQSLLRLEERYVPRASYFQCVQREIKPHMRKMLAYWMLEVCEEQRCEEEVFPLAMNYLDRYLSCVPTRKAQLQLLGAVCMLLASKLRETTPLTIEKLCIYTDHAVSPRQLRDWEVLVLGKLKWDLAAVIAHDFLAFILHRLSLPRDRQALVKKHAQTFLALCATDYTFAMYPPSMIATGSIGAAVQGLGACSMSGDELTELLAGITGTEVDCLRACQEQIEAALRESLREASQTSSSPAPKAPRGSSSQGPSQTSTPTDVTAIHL

| Compound | IC50 (p34 cdc2(CDK1)/cyclinB; values in nM) [µM] | IC50 (CDK2) [nM] | also measured |
| --- | --- | --- | --- |
| Nc1nc(OCC2CCCCC2)c2nc[nH]c2n1 [NU2058, 2-Amino-O^6-cyclohexylmethylpurine] |  |  | IC50 (p34 cdc2(CDK1)/cyclinB; values given in μM): 7 ± 0.7 µM; cytotoxicity [1]: cytotoxic; inhibitory activity against CDK1(cdc2)/cyclin B complexes [2]: very high inhibitory activity, comparable to that of olomoucine |
| O=S(=O)(Nc1ccccn1)c1ccc(Nc2nc(OCC3CCCCC3)c3nc[nH]c3n2)cc1 [NU6154, 4-(6-Cyclohexylmethoxy-9H-purin-2-ylamino)-(N-pyridin-2-yl)benzenesulfonamide] | 0.02 ± 0.006 | 27 ± 2 |  |
| CC1CCCCC1COc1nc(Nc2ccc(S(N)(=O)=O)cc2)nc2[nH]cnc12 (stereo not drawn) [NU6158, 4-[6-(2-Methyl-cyclohexylmethoxy)-9H-purin-2-ylamino]benzenesulfonamide] | 0.006 ± 0.001 | 4 ± 0.3 |  |
| Cc1cc(NS(=O)(=O)c2ccc(Nc3nc(OCC4CCCCC4)c4nc[nH]c4n3)cc2)nc(C)n1 [NU6160, 4-(6-Cyclohexylmethoxy-9H-purin-2-ylamino)-N-(2,6dimethylpyrimidin-4-yl)-benzenesulfonamide] | 0.028 ± 0.002 | 33 ± 6 |  |
| NS(=O)(=O)c1ccc(Nc2nc(OCC3CC=CCC3)c3nc[nH]c3n2)cc1 (stereo not drawn) [NU6162, 4-[6-(Cyclohex-3-enylmethoxy)-9H-purin-2ylamino]-benzenesulfonamide] | 0.021 ± 0.004 | 10 ± 1 |  |
| O=S(=O)(NCC(F)(F)F)c1ccc(Nc2nc(OCC3CCCCC3)c3nc[nH]c3n2)cc1 [NU6163, 4-(6-Cyclohexylmethoxy-9H-purin-2-ylamino)-N-(2,2,2-trifluoroethyl)-benzenesulfonamide] | 0.066 ± 0.005 | 51 ± 16 |  |
| NC(=O)Cc1ccc(Nc2nc(OCC3CCCCC3)c3nc[nH]c3n2)cc1 [NU6164, 2-[4-(6-Cyclohexylmethoxy-9H-purin-2-ylamino)-phenyl]acetamide] | 0.136 ± 0.022 | 132 ± 20 |  |
| NS(=O)(=O)c1ccc(Nc2nc(OCC3CCCC3)c3nc[nH]c3n2)cc1 [NU6166, 4-[6-Cyclopentylmethoxy-9H-purin-2-ylamino)-benzenesulfonamide] | 0.014 ± 0.003 | 7 ± 1 |  |
| C[C@H](O)CNS(=O)(=O)c1ccc(Nc2nc(OCC3CCCCC3)c3nc[nH]c3n2)cc1 [NU6167, 4-(6-Cyclohexylmethoxy-9H-purin-2-ylamino)-N-(2-hydroxypropyl)benzenesulfonamide] | 0.009 ± 0.0002 | 6 ± 1 |  |
| Cn1cnc2c(NCc3ccccc3)nc(NCCO)nc21 [Olomoucine, 2-(2-hydroxyethylamino)-6-benzylamino-9-methyl-purine] |  |  | activity against CDK4 (CDK4): neither has been found to be active; activity against CDK6 (CDK6): neither has been found to be active; inhibitory activity in relation to many common kinases other than CDK's [3]: total lack of inhibitory activity |
| CC[C@H](CO)Nc1nc(NCc2ccccc2)c2ncn(C(C)C)c2n1 [roscovitine, 6-(benzylamino)-2(R)-[{1-(hydroxy-methyl)propyl}amino]-9-isopropylpurine] |  |  | activity against CDK4 (CDK4): neither has been found to be active; activity against CDK6 (CDK6): neither has been found to be active |
